Laboratory results reported in patent publication US12486278B2, “MASP-2 inhibitors and methods of use” (Omeros Corporation, priority 2019, dated 2025).
Structures can show the parent of a compound that is named as a salt.

target: T1, MASP-2 (CCP1-CCP2-SP) (Homo sapiens, UniProt O00187); assay: Enzymatic Assay for MASP-2 (fluorogenic substrate); format: biochemical; conditions: fluorogenic substrate based on C2 cleavage site; room temperature, 20 min; 20 mM HEPES pH 7.4, 140 mM NaCl, 0.1% Tween 20
T1 construct: 15 μL of Enzyme MASP-2 (CCP1-CCP2-SP) in Assay Buffer
T1 sequence (O00187 445-686 limits assumed): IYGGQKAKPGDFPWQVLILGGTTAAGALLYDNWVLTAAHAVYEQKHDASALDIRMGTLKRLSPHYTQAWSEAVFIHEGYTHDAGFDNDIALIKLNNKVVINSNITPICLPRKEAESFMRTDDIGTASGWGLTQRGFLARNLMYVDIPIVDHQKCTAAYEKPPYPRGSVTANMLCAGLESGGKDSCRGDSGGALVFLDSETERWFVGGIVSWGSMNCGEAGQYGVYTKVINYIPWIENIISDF
T1 sequence (O00187 298-444 partner limits assumed): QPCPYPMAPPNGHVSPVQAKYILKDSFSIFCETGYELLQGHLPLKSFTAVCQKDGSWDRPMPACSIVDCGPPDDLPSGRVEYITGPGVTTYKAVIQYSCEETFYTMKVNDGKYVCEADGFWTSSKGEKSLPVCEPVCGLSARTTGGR
Protocol: The MASP-2 assay utilizes a fluorogenic substrate, based on the cleavage site for its natural substrate C2. The assay is run at room temperature in an assay buffer containing 20 mM HEPES, pH 7.4, 140 mM NaCl and 0.1% Tween 20. Assay parameters are adjusted such that the assay is linear with respect to time, enzyme, and substrate concentrations. Under these optimized assays conditions, IC50 values are equivalent to Ki values, except in a few cases of “tight binding” inhibitors. Cases of “tight binding” or possible “slow binding” inhibitors are handled by the methods described in Copeland R. A. (2013) Evaluation of Enzyme Inhibitors in Drug Discovery. 2nd Ed., John Wiley and Sons, Inc., Chapters 5-7.
The MASP-2 assay protocol is carried out as follows. Test compounds are serially diluted in DMSO and then 100 nL of each dilution is transferred to the assay plate(s). 10 μL of Assay Buffer is added, followed by 15 μL of Enzyme MASP-2 (CCP1-CCP2-SP) in Assay Buffer. 15 μL of Substrate in Assay Buffer is then added and mixed to start the reactions. After 20 min at room temperature, 15 μL of a stop solution (0.1 M acetic acid) is added, mixed and the plates are read on a SpectraMax i3x Microplate Reader and exported as Excel files. Each assay plate included a “no inhibitor” (DMSO Only) control, a “no enzyme” control and a reference inhibitor control. % Activity values=100*(average test comp. fluorescence−average “no enzyme” fluorescence)/(average “DMSO only” fluorescence−average “no enzyme” fluorescence). IC50 and Ki values are very reproducible, falling well within ±2-fold.

`Cc1cccc(C2CN[C@@H](C(=O)N[C@@H](C)C(=O)NCc3ccc(C(=N)N)cc3)C2)c1` (single isomer, unassigned) [Compound I-14, N-(1-((4-Carbamimidoylbenzyl)amino)-1-oxopropan-2-yl)-4-(m-tolyl)pyrrolidine-2-carboxamide] and `Cc1cccc([C@@H]2CN[C@@H](C(=O)N[C@@H](C)C(=O)NCc3ccc(C(=N)N)cc3)C2)c1` [Compound I-13, (2R,4R)—N—((S)-1-((4-Carbamimidoylbenzyl)Amino)-1-Oxopropan-2-Yl)-4-(M-Tolyl)Pyrrolidine-2-Carboxamide] cannot be ordered by Ki: less than 500 nM for the first, less than 500 nM for the second.

First: CC(NC(=O)[C@H]1C[C@@H](c2ccccc2)CCN1CC(=O)O)C(=O)NCc1cc2cnccc2[nH]1 (stereo in doubt) [Compound I-104, 2-((2R,4S)-2-(((R)-1-(((1H-pyrrolo[3,2-c]pyridin-2-yl)methyl)amino)-1-oxopropan-2-yl)carbamoyl)-4-phenylpiperidin-1-yl)acetic acid di-trifluoroacetate]
Second: C[C@H](NC(=O)[C@H]1C[C@H](c2ccccc2)CN1)C(=O)NCc1cc2ccncc2[nH]1 [Compound I-3, (2R,4R)—N—((S)-1-(((1H-pyrrolo[2,3-c]pyridin-2-yl)methyl)amino)-1-oxopropan-2-yl)-4-phenylpyrrolidine-2-carboxamide di-trifluoroacetate]
The Ki of the first is lower: less than 500 nM for the first, 2500 to 10000 nM for the second. The first binds more tightly here.

`CC(NC(=O)[C@H]1C[C@@H](c2ccccc2)CCN1CC(=O)O)C(=O)NCc1cc2cnccc2[nH]1` (stereo in doubt) [Compound I-105, 2-((2R,4S)-2-(((S)-1-(((1H-pyrrolo[3,2-c]pyridin-2-yl)methyl)amino)-1-oxopropan-2-yl)carbamoyl)-4-phenylpiperidin-1-yl)acetic acid di-trifluoroacetate] and `C[C@H](NC(=O)[C@H]1C[C@H](C2(c3ccccc3)CC2)CN1)C(=O)NCc1cc2cnccc2[nH]1` [Compound I-8, (2R,4R)—N—((S)-1-(((1H-Pyrrolo[3,2-C]Pyridin-2-Yl)Methyl)Amino)-1-Oxopropan-2-Yl)-4-(1-Phenylcyclopropyl)Pyrrolidine-2-Carboxamide Di-Trifluoroacetate] cannot be ordered by Ki: less than 500 nM for the first, less than 500 nM for the second.

First: C[C@H](NC(=O)[C@H]1C[C@H](c2ccccc2)CN1)C(=O)NCc1cc2c(Br)cncc2[nH]1 [Compound I-1, (2R,4R)—N—((S)-1-(((4-bromo-1H-pyrrolo[2,3-c]pyridin-2-yl)methyl)amino)-1-oxopropan-2-yl)-4-phenylpyrrolidine-2-carboxamide di-trifluoroacetate]
Second: C[C@H](NC(=O)[C@H]1C[C@H](c2ccccc2)CN1)C(=O)NCc1cc2ncccc2[nH]1 [Compound I-6, (2R,4R)—N—((S)-1-(((1H-Pyrrolo[3,2-b]pyridin-2-yl)methyl)amino)-1-oxopropan-2-yl)-4-phenylpyrrolidine-2-carboxamide di-trifluoroacetate]
The Ki of the first is higher: greater than 10000 nM for the first, 500 to 2500 nM for the second. The second binds more tightly here.

`C[C@H](NC(=O)[C@H]1C[C@H](Cc2ccc(F)c(Cl)c2)CN1)C(=O)NCc1cc2cnccc2[nH]1` [Compound I-2, (2R,4S)—N—((S)-1-(((1H-Pyrrolo[3,2-C]Pyridin-2-Yl)Methyl)Amino)-1-Oxopropan-2-Yl)-4-(3-Chloro-4-Fluorobenzyl)Pyrrolidine-2-Carboxamide Di-Trifluoroacetate] and `C[C@H](NC(=O)[C@H]1C[C@H](Cc2cccc(Cl)c2)CN1)C(=O)NCc1cc2cnccc2[nH]1` [Compound I-5, (2R,4S)—N—((S)-1-(((1H-Pyrrolo[3,2-c]pyridin-2-yl)methyl)amino)-1-oxopropan-2-yl)-4-(3-chlorobenzyl)pyrrolidine-2-carboxamide di-trifluoroacetate] cannot be ordered by Ki: less than 500 nM for the first, less than 500 nM for the second.

First: C[C@H](NC(=O)[C@H]1C[C@H](c2ccccc2)CN1)C(=O)NCc1nc2c(Cl)cccc2s1 [Compound I-4, (2R,4R)—N—((S)-1-(((4-Chlorobenzo[D]Thiazol-2-Yl)Methyl)Amino)-1-Oxopropan-2-Yl)-4-Phenylpyrrolidine-2-Carboxamide Trifluoroacetate]
Second: C[C@H](NC(=O)[C@H]1C[C@H](c2ccccc2)CN1)C(=O)NCc1ccc(C(=N)N)cc1Cl [Compound I-24, (2R,4R)—N—((S)-1-((4-Carbamimidoyl-2-Chlorobenzyl)Amino)-1-Oxopropan-2-Yl)-4-Phenylpyrrolidine-2-Carboxamide Di-Trifluoroacetate]
The Ki of the first is higher: 500 to 2500 nM for the first, less than 500 nM for the second.

`C[C@H](NC(=O)[C@H]1C[C@H](c2ccccc2)CN1)C(=O)NCc1[nH]c2ccncc2c1F` [Compound I-7, (2R,4R)—N—((S)-1-(((3-Fluoro-1H-Pyrrolo[3,2-C]Pyridin-2-Yl)Methyl)Amino)-1-Oxopropan-2-Yl)-4-Phenylpyrrolidine-2-Carboxamide Di-Trifluoroacetate] and `C[C@H](NC(=O)[C@H]1C[C@H](Cc2ccccc2)CN1)C(=O)NCc1cnc2scc(Cl)c2c1` [Compound I-11, (2R,4S)-4-Benzyl-N—((S)-1-(((3-Chlorothieno[2,3-B]Pyridin-5-Yl)Methyl)Amino)-1-Oxopropan-2-Yl)Pyrrolidine-2-Carboxamide Trifluoroacetate] cannot be ordered by Ki: less than 500 nM for the first, less than 500 nM for the second.

`C[C@H](NC(=O)[C@H]1C[C@H](Cc2ccccc2)CN1)C(=O)NCc1ccc2c(c1)CNC2` [Compound I-9, (2R,4S)-4-Benzyl-N—((S)-1-((Isoindolin-5-Ylmethyl)Amino)-1-Oxopropan-2-Yl)Pyrrolidine-2-Carboxamide Di-Trifluoroacetate] and `C[C@H](NC(=O)[C@H]1C[C@H](Cc2ccc(F)c(Cl)c2)CN1)C(=O)NCc1ccc(C(=N)N)cc1` [Compound I-23, (2R,4S)—N—((S)-1-((4-Carbamimidoylbenzyl)Amino)-1-Oxopropan-2-Yl)-4-(3-Chloro-4-Fluorobenzyl)Pyrrolidine-2-Carboxamide Di-Trifluoroacetate] cannot be ordered by Ki: less than 500 nM for the first, less than 500 nM for the second.

First: Cc1nc(N)ccc1CNC(=O)[C@@H]1COCCN1C(=O)[C@H]1C[C@H](Cc2ccccc2)CN1 [Compound I-12, (S)—N-((6-Amino-2-Methylpyridin-3-Yl)Methyl)-4-((2R,4S)-4-Benzylpyrrolidine-2-Carbonyl)Morpholine-3-Carboxamide Di-Trifluoroacetate]
Second: Cc1nc(N)ccc1CNC(=O)[C@H](C)NC(=O)[C@H]1C[C@H](Cc2cc(Br)c(Br)s2)CN1 [Compound I-17, (2R,4R)—N—((S)-1-(((6-Amino-2-Methylpyridin-3-Yl)Methyl)Amino)-1-Oxopropan-2-Yl)-4-((4,5-Dibromothiophen-2-Yl)Methyl)Pyrrolidine-2-Carboxamide Di-Trifluoroacetate]
The Ki of the first is higher: 500 to 2500 nM for the first, less than 500 nM for the second.

`C[C@H](NC(=O)[C@H]1C[C@@H](c2cccc(C(N)=O)c2)CN1)C(=O)NCc1ccc(C(=N)N)cc1` [Compound I-15] and `COc1cccc([C@@H]2CN[C@@H](C(=O)N[C@@H](C)C(=O)NCc3ccc(C(=N)N)cc3)C2)c1` [Compound I-16, (2R,4R)—N—((S)-1-((4-Carbamimidoylbenzyl)Amino)-1-Oxopropan-2-Yl)-4-(3-Methoxyphenyl)Pyrrolidine-2-Carboxamide Dihydrochloride] cannot be ordered by Ki: less than 500 nM for the first, less than 500 nM for the second.

`Cc1nc(N)ccc1CNC(=O)[C@H](C)NC(=O)[C@H]1C[C@H](Cc2cc(Cl)c(Cl)s2)CN1` [Compound I-18, (2R,4R)—N—((S)-1-(((6-Amino-2-Methylpyridin-3-Yl)Methyl)Amino)-1-Oxopropan-2-Yl)-4-((4,5-Dichlorothiophen-2-Yl)Methyl)Pyrrolidine-2-Carboxamide Di-Trifluoroacetate] and `C[C@H](NC(=O)[C@H]1C[C@H](Cc2cc(Cl)c(Cl)s2)CN1)C(=O)NCc1cc2cnccc2[nH]1` [Compound I-22, (2R,4R)—N—((S)-1-(((1H-Pyrrolo[3,2-C]Pyridin-2-Yl)Methyl)Amino)-1-Oxopropan-2-Yl)-4-((4,5-Dichlorothiophen-2-Yl)Methyl)Pyrrolidine-2-Carboxamide Di-Trifluoroacetate] cannot be ordered by Ki: less than 500 nM for the first, less than 500 nM for the second.

`C[C@H](NC(=O)[C@H]1C[C@H](Cc2cc(Br)c(Cl)s2)CN1)C(=O)NCc1cnc2c(c1)c(Cl)cn2C` [Compound I-19, (2R,4R)-4-((4-Bromo-5-Chlorothiophen-2-Yl)Methyl)-N—((S)-1-(((3-Chloro-1-Methyl-1H-Pyrrolo[2,3-B]Pyridin-5-Yl)Methyl)Amino)-1-Oxopropan-2-Yl)Pyrrolidine-2-Carboxamide Trifluoroacetate] and `C[C@H](NC(=O)[C@H]1C[C@H](Cc2cc(Cl)c(Cl)s2)CN1)C(=O)NCc1cnc2c(c1)c(Cl)cn2C` [Compound I-20, Trifluoroacetate] cannot be ordered by Ki: less than 500 nM for the first, less than 500 nM for the second.

`C[C@H](NC(=O)[C@H]1C[C@H](Cc2cc(Br)c(Cl)s2)CN1)C(=O)NCc1cc2cnccc2[nH]1` [Compound I-21, (2R,4R)—N—((S)-1-(((1H-Pyrrolo[3,2-C]Pyridin-2-Yl)Methyl)Amino)-1-Oxopropan-2-Yl)-4-((4-Bromo-5-Chlorothiophen-2-Yl)Methyl)Pyrrolidine-2-Carboxamide Di-Trifluoroacetate] showed a Ki of less than 500 nM.
